Data published in patent publication US9630977B2, “Cephalosporin derivatives and pharmaceutical compositions thereof” (Legochem Biosciences, Inc., priority 2011, dated 2017).
Converted amounts (≈) assume the structure as drawn.

Each molecule was assayed on A. baumannii 46 (assay: In vitro antibacterial activity test (broth microdilution)). Conditions: Acinetobacter baumannii; A. baumannii 46; read-out: MIC90.
Type: cell-based
Experimental: (§1) To evaluate antibacterial activity of each of the compounds of Examples 1 to 68, in vitro antibacterial activity test was performed.
(§2) The in vitro antibacterial activity was evaluated by measuring MIC90 (ug/mL) of each of the compounds of Examples 1 to 68, which is defined as the lowest concentration of an antibiotic that will inhibit the visible growth of 90% of microorganisms after incubation as compared with a control group to which the antibiotic is not treated. MIC90 values were measured by the broth microdilution method developed by the Clinical and Laboratory Standards Institute (CLSI) (see CLSI M7-A5, Methods for Dilution Antimicrobial Susceptibility Test for Bacteria that Grow Aerobically-Fifth Edition (2000): CLSI, Villanova, Pa.).
(§3) In vitro antibacterial activity was measured with respect to the following 19 clinical isolates: M. catarrhalis; P. aeruginosa (5 strains); K. pneumoniae (6 strains); A. baumannii (3 strains); E. coli (2 strains); A. calcoaceticus; and E. cloacae.
(§4) Test compounds each (the cephalosporin derivative compounds prepared in Examples 1 to 68) were dissolved in DMSO at the concentration of 10,240 ug/mL, were diluted by two fold with DMSO, and then were diluted by twenty fold with sterilized distilled water. The final concentration in the antibacterial activity test was in the range of […] to 128 ug/mL, and the final concentration of DMSO used as an adjuvant was 2.5% (V/V).
`C[C@H](O/N=C(\C(=O)N[C@@H]1C(=O)N2C(C(=O)[O-])=C(/C=C/C[n+]3cnc(N)c(NCCNC(=O)c4cc(=O)c(O)cn4O)c3)CSC12)c1nc(N)sc1Cl)C(=O)O` (stereo partly shown) [Compound 24] gave an MIC90 of 2 µg/mL (≈ 2.44 µM).

Each molecule was assayed on A. baumannii 49 in the same assay as above. Conditions: Acinetobacter baumannii; A. baumannii 49; read-out: MIC90.
Type: cell-based
Experimental: as §1, §2, §3, §4
With `C[C@H](O/N=C(\C(=O)N[C@@H]1C(=O)N2C(C(=O)[O-])=C(/C=C/C[n+]3cnc(N)c(NCCNC(=O)c4cc(=O)c(O)cn4O)c3)CSC12)c1nc(N)sc1Cl)C(=O)O` (stereo partly shown) [Compound 24] the MIC90 was 32 µg/mL (≈ 39 µM).

What follows are molecules tested on A. baumannii 52 in the same assay as above. Conditions: Acinetobacter baumannii; A. baumannii 52; read-out: MIC90.
Type: cell-based
Experimental: as §1, §2, §3, §4
Work on `C[C@H](O/N=C(\C(=O)N[C@@H]1C(=O)N2C(C(=O)[O-])=C(/C=C/C[n+]3cnc(N)c(NCCNC(=O)c4cc(=O)c(O)cn4O)c3)CSC12)c1nc(N)sc1Cl)C(=O)O` (stereo partly shown) [Compound 24] yielded an MIC90 of 16 µg/mL (≈ 19.5 µM).

The molecules below were run on A. calcoaceticus ATCC15473 in the same assay as above. Conditions: Acinetobacter calcoaceticus; A. calcoaceticus ATCC15473; read-out: MIC90.
Type: cell-based
Experimental: as §1, §2, §3, §4
Molecule `C[C@H](O/N=C(\C(=O)N[C@@H]1C(=O)N2C(C(=O)[O-])=C(/C=C/C[n+]3cnc(N)c(NCCNC(=O)c4cc(=O)c(O)cn4O)c3)CSC12)c1nc(N)sc1Cl)C(=O)O` (stereo partly shown) [Compound 24] has an MIC90 of 0.5 µg/mL (≈ 0.61 µM).

What follows are molecules tested on E. cloacae β19 in the same assay as above. Conditions: Enterobacter cloacae, read-out: MIC90.
Type: cell-based
Experimental: as §1, §2, §3, §4
`C[C@H](O/N=C(\C(=O)N[C@@H]1C(=O)N2C(C(=O)[O-])=C(/C=C/C[n+]3cnc(N)c(NCCNC(=O)c4cc(=O)c(O)cn4O)c3)CSC12)c1nc(N)sc1Cl)C(=O)O` (stereo partly shown) [Compound 24] gave an MIC90 of 0.5 µg/mL (≈ 0.61 µM).

Each molecule was assayed on E. coli AG100 in the same assay as above. Conditions: Escherichia coli, AG100, E. coli AG100; read-out: MIC90.
Type: cell-based
Experimental: as §1, §2, §3, §4
Work on `C[C@H](O/N=C(\C(=O)N[C@@H]1C(=O)N2C(C(=O)[O-])=C(/C=C/C[n+]3cnc(N)c(NCCNC(=O)c4cc(=O)c(O)cn4O)c3)CSC12)c1nc(N)sc1Cl)C(=O)O` (stereo partly shown) [Compound 24] yielded an MIC90 of under 0.0625 µg/mL.

These molecules were tested on E. coli β4 in the same assay as above. Conditions: Escherichia coli, read-out: MIC90.
Type: cell-based
Experimental: as §1, §2, §3, §4
With `C[C@H](O/N=C(\C(=O)N[C@@H]1C(=O)N2C(C(=O)[O-])=C(/C=C/C[n+]3cnc(N)c(NCCNC(=O)c4cc(=O)c(O)cn4O)c3)CSC12)c1nc(N)sc1Cl)C(=O)O` (stereo partly shown) [Compound 24] the MIC90 was under 0.0625 µg/mL.

Each molecule was assayed on K. pneumoniae 2011E in the same assay as above. Conditions: Klebsiella pneumoniae, 2011E, K. pneumoniae 2011E; read-out: MIC90.
Type: cell-based
Experimental: as §1, §2, §3, §4
`C[C@H](O/N=C(\C(=O)N[C@@H]1C(=O)N2C(C(=O)[O-])=C(/C=C/C[n+]3cnc(N)c(NCCNC(=O)c4cc(=O)c(O)cn4O)c3)CSC12)c1nc(N)sc1Cl)C(=O)O` (stereo partly shown) [Compound 24] showed an MIC90 of 0.5 µg/mL (≈ 0.61 µM).

What follows are molecules tested on K. pneumoniae β10 in the same assay as above. Conditions: Klebsiella pneumoniae; K. pneumoniae β10; read-out: MIC90.
Type: cell-based
Experimental: as §1, §2, §3, §4
`C[C@H](O/N=C(\C(=O)N[C@@H]1C(=O)N2C(C(=O)[O-])=C(/C=C/C[n+]3cnc(N)c(NCCNC(=O)c4cc(=O)c(O)cn4O)c3)CSC12)c1nc(N)sc1Cl)C(=O)O` (stereo partly shown) [Compound 24] showed an MIC90 of under 0.0625 µg/mL.

These molecules were tested on K. pneumoniae β11 in the same assay as above. Conditions: Klebsiella pneumoniae; K. pneumoniae β11; read-out: MIC90.
Type: cell-based
Experimental: as §1, §2, §3, §4
`C[C@H](O/N=C(\C(=O)N[C@@H]1C(=O)N2C(C(=O)[O-])=C(/C=C/C[n+]3cnc(N)c(NCCNC(=O)c4cc(=O)c(O)cn4O)c3)CSC12)c1nc(N)sc1Cl)C(=O)O` (stereo partly shown) [Compound 24] was tested, and the MIC90 was 2 µg/mL (≈ 2.44 µM).

What follows are molecules tested on K. pneumoniae β13 in the same assay as above. Conditions: Klebsiella pneumoniae, K. pneumoniae β13; read-out: MIC90.
Type: cell-based
Experimental: as §1, §2, §3, §4
`C[C@H](O/N=C(\C(=O)N[C@@H]1C(=O)N2C(C(=O)[O-])=C(/C=C/C[n+]3cnc(N)c(NCCNC(=O)c4cc(=O)c(O)cn4O)c3)CSC12)c1nc(N)sc1Cl)C(=O)O` (stereo partly shown) [Compound 24] was tested, and the MIC90 was 0.125 µg/mL (≈ 0.152 µM).

Each molecule was assayed on K. pneumoniae β14 in the same assay as above. Conditions: Klebsiella pneumoniae, read-out: MIC90.
Type: cell-based
Experimental: as §1, §2, §3, §4
Work on `C[C@H](O/N=C(\C(=O)N[C@@H]1C(=O)N2C(C(=O)[O-])=C(/C=C/C[n+]3cnc(N)c(NCCNC(=O)c4cc(=O)c(O)cn4O)c3)CSC12)c1nc(N)sc1Cl)C(=O)O` (stereo partly shown) [Compound 24] yielded an MIC90 of 4 µg/mL (≈ 4.88 µM).

These molecules were tested on K. pneumoniae β9 in the same assay as above. Conditions: Klebsiella pneumoniae, K. pneumoniae β9; read-out: MIC90.
Type: cell-based
Experimental: as §1, §2, §3, §4
`C[C@H](O/N=C(\C(=O)N[C@@H]1C(=O)N2C(C(=O)[O-])=C(/C=C/C[n+]3cnc(N)c(NCCNC(=O)c4cc(=O)c(O)cn4O)c3)CSC12)c1nc(N)sc1Cl)C(=O)O` (stereo partly shown) [Compound 24] was tested, and the MIC90 was under 0.0625 µg/mL.

What follows are molecules tested on M. catarrhalis 2524 in the same assay as above. Conditions: Moraxella catarrhalis; M. catarrhalis 2524; read-out: MIC90.
Type: cell-based
Experimental: as §1, §2, §3, §4
`C[C@H](O/N=C(\C(=O)N[C@@H]1C(=O)N2C(C(=O)[O-])=C(/C=C/C[n+]3cnc(N)c(NCCNC(=O)c4cc(=O)c(O)cn4O)c3)CSC12)c1nc(N)sc1Cl)C(=O)O` (stereo partly shown) [Compound 24] was tested, and the MIC90 was under 0.0625 µg/mL.

What follows are molecules tested on P. aeruginosa 1912E in the same assay as above. Conditions: Pseudomonas aeruginosa, 1912E, read-out: MIC90.
Type: cell-based
Experimental: as §1, §2, §3, §4
With `C[C@H](O/N=C(\C(=O)N[C@@H]1C(=O)N2C(C(=O)[O-])=C(/C=C/C[n+]3cnc(N)c(NCCNC(=O)c4cc(=O)c(O)cn4O)c3)CSC12)c1nc(N)sc1Cl)C(=O)O` (stereo partly shown) [Compound 24] the MIC90 was 0.25 µg/mL (≈ 0.305 µM).

These molecules were tested on P. aeruginosa 37 in the same assay as above. Conditions: Pseudomonas aeruginosa, 37, P. aeruginosa 37; read-out: MIC90.
Type: cell-based
Experimental: as §1, §2, §3, §4
`C[C@H](O/N=C(\C(=O)N[C@@H]1C(=O)N2C(C(=O)[O-])=C(/C=C/C[n+]3cnc(N)c(NCCNC(=O)c4cc(=O)c(O)cn4O)c3)CSC12)c1nc(N)sc1Cl)C(=O)O` (stereo partly shown) [Compound 24] gave an MIC90 of under 0.0625 µg/mL.

The molecules below were run on P. aeruginosa 40 in the same assay as above. Conditions: Pseudomonas aeruginosa, 40, P. aeruginosa 40; read-out: MIC90.
Type: cell-based
Experimental: as §1, §2, §3, §4
With `C[C@H](O/N=C(\C(=O)N[C@@H]1C(=O)N2C(C(=O)[O-])=C(/C=C/C[n+]3cnc(N)c(NCCNC(=O)c4cc(=O)c(O)cn4O)c3)CSC12)c1nc(N)sc1Cl)C(=O)O` (stereo partly shown) [Compound 24] the MIC90 was 0.25 µg/mL (≈ 0.305 µM).

These molecules were tested on P. aeruginosa 43 in the same assay as above. Conditions: Pseudomonas aeruginosa; P. aeruginosa 43; read-out: MIC90.
Type: cell-based
Experimental: as §1, §2, §3, §4
`C[C@H](O/N=C(\C(=O)N[C@@H]1C(=O)N2C(C(=O)[O-])=C(/C=C/C[n+]3cnc(N)c(NCCNC(=O)c4cc(=O)c(O)cn4O)c3)CSC12)c1nc(N)sc1Cl)C(=O)O` (stereo partly shown) [Compound 24] gave an MIC90 of 0.25 µg/mL (≈ 0.305 µM).

Each molecule was assayed on P. aeruginosa 6065Y in the same assay as above. Conditions: Pseudomonas aeruginosa, read-out: MIC90.
Type: cell-based
Experimental: as §1, §2, §3, §4
For `C[C@H](O/N=C(\C(=O)N[C@@H]1C(=O)N2C(C(=O)[O-])=C(/C=C/C[n+]3cnc(N)c(NCCNC(=O)c4cc(=O)c(O)cn4O)c3)CSC12)c1nc(N)sc1Cl)C(=O)O` (stereo partly shown) [Compound 24], the MIC90 was 0.5 µg/mL (≈ 0.61 µM).
